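48-hour exposure; five concentrations; linearly interpolated endpoints. The concentration for 50% growth inhibition is given as GI50.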 Calls of active or inactive are those of the source. Rule as the data show it: active = GI50 up to about 1.1 µM and inactive = higher.
Experiments:
Assay in all cases: inhibition of tumour cell growth, NCI panel, 48 h
TK-10 = test system: TK-10
UACC-257 = test system: UACC-257
LOX IMVI = test system: LOX IMVI
NCI/ADR-RES = test system: NCI/ADR-RES
SF-268 = test system: SF-268
RPMI-8226 = test system: RPMI-8226
ACHN = test system: ACHN
IGROV-1 = test system: IGROV-1
U-251 = test system: U-251
HL-60 = test system: HL-60
MDA-N = test system: MDA-N
OVCAR-5 = test system: OVCAR-5
SNB-19 = test system: SNB-19
DMS-273 = test system: DMS-273
NCI-H226 = test system: NCI-H226
SF-539 = test system: SF-539
NCI-H522 = test system: NCI-H522
HCT-116 = test system: HCT-116
SK-MEL-2 = test system: SK-MEL-2
DLD-1 = test system: DLD-1

Compound | GI50 (TK-10) | GI50 (UACC-257) | GI50 (LOX IMVI) | GI50 (NCI/ADR-RES) | GI50 (SF-268) | GI50 (RPMI-8226) | GI50 (ACHN) | GI50 (IGROV-1) | GI50 (U-251) | GI50 (HL-60) | GI50 (MDA-N) | GI50 (OVCAR-5) | GI50 (SNB-19) | GI50 (DMS-273) | GI50 (NCI-H226) | GI50 (SF-539) | GI50 (NCI-H522) | GI50 (HCT-116) | GI50 (SK-MEL-2) | GI50 (DLD-1)
O=C1C=C(Br)c2c(-c3ccccc3)oc3cccc1c23 | 38.1 µM (inactive) | > 100 µM (inactive) | > 49 µM (inactive) | 48 µM (inactive) | 20.2 µM (inactive) | > 39.3 µM (inactive) | 49 µM (inactive) | 32.3 µM (inactive) | 18.4 µM (inactive) | 19.1 µM (inactive) | 18.4 µM (inactive) | > 100 µM (inactive) | 42.1 µM (inactive) | > 42.9 µM (inactive) | > 80.9 µM (inactive) | 23.2 µM (inactive) | 31.6 µM (inactive) | 25.2 µM (inactive) | 71.8 µM (inactive) | > 100 µM (inactive)
Nc1ccn(C2OC(COC(=O)C34CC5CC(CC(C5)C3)C4)C(O)C2O)c(=O)n1 (stereo not given) | > 100 µM (inactive) | > 100 µM (inactive) | 7.01 µM (inactive) | > 100 µM (inactive) | > 50.5 µM (inactive) | > 100 µM (inactive) | 1.77 µM (inactive) | > 100 µM (inactive) | > 100 µM (inactive) | 0.622 µM (active) | > 100 µM (inactive) | > 100 µM (inactive) | > 79.8 µM (inactive) | > 100 µM (inactive) | > 100 µM (inactive) | > 100 µM (inactive) | 10.7 µM (inactive) | 2.75 µM (inactive) | > 100 µM (inactive) | > 100 µM (inactive)
O=S1(=O)CCN(c2ccccc2CC(c2c[nH]c3ccccc23)c2c[nH]c3ccccc23)CC1 | 5.32 µM (inactive) | 5.15 µM (inactive) | 3.57 µM (inactive) | 6.62 µM (inactive) | 5.19 µM (inactive) | 1.75 µM (inactive) | 5.04 µM (inactive) | 6.93 µM (inactive) | 7.87 µM (inactive) | 1.12 µM (active) | 3.92 µM (inactive) | 14.1 µM (inactive) | 12.3 µM (inactive) | 8.63 µM (inactive) | 12.7 µM (inactive) | 11.9 µM (inactive) | 4.49 µM (inactive) | 4.47 µM (inactive) | 6.24 µM (inactive) | 4.37 µM (inactive)
c1cc2n(n1)CCN2 | > 1490 µM (inactive) | 5980 µM (inactive) | 662 µM (inactive) | 561 µM (inactive) | 1550 µM (inactive) | 1890 µM (inactive) | 151 µM (inactive) | 7380 µM (inactive) | 706 µM (inactive) | 238 µM (inactive) | 4680 µM (inactive) | 4300 µM (inactive) | 4030 µM (inactive) | 262 µM (inactive) | 1960 µM (inactive) | 646 µM (inactive) | 2300 µM (inactive) | 1950 µM (inactive) | 6460 µM (inactive) | 5420 µM (inactive)
